Columns and labels:
[1] = Quantity of active agent incorporated in the yeast cells, released by hypertonic (osmotic) treatment and determined by HPLC; type: physicochemical, Saccharomyces cerevisiae; settings: batch not stated, column unlabelled
Procedure: The suspensions obtained as described above were tested in order to check the quantity of ascorbic acid that had accumulated in the cells.
Step IV)—The suspension obtained in Step III) was centrifuged at 4000 r.p.m. (1252 R.C.F.). The precipitated was washed twice (sample A) or thrice (sample B) with an isotonic solution of sodium chloride (0.9%) keeping it in suspension during each washing.
Step V)—The centrifugate was brought up to 80 g with the hypertonic solution (NaCl 2.0M) used for Step I). In order to complete the osmotic treatment, the suspension was kept under gentle stirring for 6 hours at 25° C.
Step VI)—The ascorbic acid present in each solution (mg/ml) and in the microorganism (mg/g) was determined by HPLC, by the use of the following formula: mg/g=Ac×Ps×fs×Ds×1000/As×Pc×Dc,
The suspension obtained as described above was tested in order to check the quantity of oxytetracycline that had accumulated in the cells.
Step IV)—The suspension obtained in Step II) was centrifuged at 4000 r.p.m. (1252 R.C.F.). The centrifugate was washed twice (A) or thrice (B) with an isotonic solution of sodium chloride (0.9%) keeping it in suspension for 10 minutes before centrifugation.
Step VI)—The oxytetracycline HCl present in each solution (mg/ml) and in the microorganism (mg/g) was determined by HPLC, by the use of the following formula: mg/g=Ac×Ps×fs×Ds×1000/As×Pc×Dc,
The suspension obtained as described above was tested in order to check the quantity of sodium sulphadimethoxine that had accumulated in the cells.
Step VI)—The sodium sulphadimethoxine present in each (mg/ml) and in the microorganism (mg/g) was determined by HPLC, by the use of the following formula: mg/g=Ac×Ps×fs×Ds×1000/As×Pc×Dc,
The suspension as previously obtained was tested to ascertain the quantity of sodium sulphadimethoxin that had accumulated in the cells.
Step IV)—For analytical reasons, the suspension obtained in Step III) was diluted with an isotonic solution of sodium sulphadimethoxin (5.17%) to 200 g. An aliquot of 80 g of suspension was taken. The suspension was centrifuged at 10 000 r.p.m., and the centrifugate was washed twice (A) or thrice (B) with an isotonic solution of sodium chloride (0.9%). The suspension was stirred for 10 minutes before each washing.
Step VI)—The sodium sulphadimethoxin present in solution (mg/ml) and in the microorganism (mg/g) was determined by HPLC, by the use of the following formula: mg/g=Ac×Ps×fs×Ds×1000/As×Pc×Dc,
The suspension obtained as described above was tested in order to check the quantity of ascorbic acid that had been loaded in the cells. […]
Step VI)—The ascorbic acid present in the washing solution (mg/ml) and in the microorganism (mg/g) was determined by HPLC, by the use of the following formula: mg/g=Ac×Ps×fs×Ds×1000/As×Pc×Dc, […]

[2] = known from the literature; cited from earlier work
[3] = Incorporated vitamins determined by HPLC after 5N HCl or NaOH 0.05N extraction of dried yeast; type: physicochemical, Saccharomyces cerevisiae; settings: Example 10, content in dried loaded yeast; for Incorporated vitamins (HCl extraction), Content: 5N HCl extraction; for Incorporated vitamins (NaOH extraction), Content: NaOH 0.05N extraction
Procedure: In this treatment yeast cells have been partially emptied by the hypertonic solution, comprising NaCl and Trisodium citrate bihydrate, as already described. Vitamins were then incorporated by incubation in a vitamins hypotonic solution (hypotonic=80% isotonicity). The quantity of vitamins loaded into the cells, was measured by HPLC. The suspension was then centrifuged and the centrifugates was washed twice with 560 g NaCl isotonic solution (0.9%). Step IV)-The centrifugate was air-dried at 45° C. for 36 hours. After mincing the dried pellets were sifted on a 400μ net. Step V)-The incorporated vitamins quantities were determined by HPLC af[…] HCl extraction for one hours at 25° C. under gentle stirring and after NaOH 0.05N extraction (one hours at 25° C. under gentle stirring). In this treatment yeast cells have been partially emptied by the hypertonic solution, comprising NaCl and Trisodium citrate bihydrate, as already described. α-tocopherol (vitamin E) was then incorporated by incubation in a vitamin hypotonic solution (hypotonic=80% isotonicity). The quantity of vitamin loaded into the cells, was measured HPLC. […] An aliquot of the solution (B), was then washed one more time with a NaCl isotonic solution Step IV)-The centrifugate was air-dried at 40° C. for 36 hours. The dried mass of cells was minced and then sifted on a 400μ net. Step V)-The incorporated vitamin quantities were determined by HPLC af[…] HCl extraction for one hour at 25° C. under gentle stirring.

Compound | Incorporated vitamins (HCl extraction), Content [3] | Incorporated vitamins (NaOH extraction), Content [3] | also measured
O=C1O[C@H]([C@@H](O)CO)C(O)=C1O [Ascorbic acid, ascorbic acid] |  |  | Ascorbic acid final soln. ([1]; Example 5, Test 5NC): 0.16 mg/mL; thermostability of ascorbic acid as such [2]: easily denatured at much lower temperatures
cyanocobalamin | 0.018 0/00 (mg/g) | 0.014 0/00 (mg/g) | 
Cc1ncc(C[n+]2csc(CCO)c2C)c(N)n1 [Tiamine, thiamine] | 3.787 0/00 (mg/g) | 3.493 0/00 (mg/g) | 
COc1cc([N-]S(=O)(=O)c2ccc(N)cc2)nc(OC)n1.[Na+] [sulphadimetoxin, sodium sulphadimethoxine] |  |  | Sulphadimetoxin final soln. ([1]; Example 3, Test 4NS1): 0.075 mg/mL; Sulphadimetoxin final soln. ([1]; Example 4, Test 6NS1): 0.066 mg/mL
CN(C)[C@@H]1C(O)=C(C(N)=O)C(=O)[C@@]2(O)C(O)=C3C(=O)c4c(O)cccc4[C@@](C)(O)[C@H]3[C@H](O)[C@@H]12.Cl [Oxytetracyclin, oxytetracycline HCl] |  |  | Oxytetracyclin final soln. ([1]; Example 2, Test 3NO): 0.249 mg/mL
Nc1nc2ncc(CNc3ccc(C(=O)N[C@@H](CCC(=O)O)C(=O)O)cc3)nc2c(=O)[nH]1 [Folic Acid, folic acid] | 0.203 0/00 (mg/g) | 2.663 0/00 (mg/g) | 
